According to PubChem BioAssay AID1259407 (Chemical Carcinogenesis Research Information System (CCRIS), 2018):
Active and inactive are the calls of the source. The rule behind the calls is not given here.

Test system: CCRIS mutagenicity, Ames/micronucleus/aberration tests
Experiment: CCRIS mutagenicity studies
[1] = Test System: AMES SALMONELLA TYPHIMURIUM, Strain/Indicator: TA98, Metabolic Activation: NONE, Method: PREINCUBATION
[2] = Test System: AMES SALMONELLA TYPHIMURIUM, Strain/Indicator: TA100, Metabolic Activation: NONE, Method: PREINCUBATION
[3] = Test System: AMES SALMONELLA TYPHIMURIUM, Strain/Indicator: TA1535, Metabolic Activation: NONE, Method: PREINCUBATION
[4] = Test System: AMES SALMONELLA TYPHIMURIUM, Strain/Indicator: TA1537, Metabolic Activation: NONE, Method: PREINCUBATION

With Oc1ccccc1O the mutagenic call (End Point: IN VITRO CHROMOSOMAL ABERRATIONS, Test System: CHINESE HAMSTER V79 CELLS, Metabolic Activation: NONE) was “active; positive at ph 7.4 and 8.0”, the mutagenic call (End Point: IN VITRO MICRONUCLEUS, Test System: CHINESE HAMSTER LUNG (CHL)/IU CELLS, Metabolic Activation: NONE) was “active; positive” and the mutagenic call (Test System: AMES SALMONELLA TYPHIMURIUM, Strain/Indicator: TA97, Metabolic Activation: NONE, Method: PREINCUBATION) was “inactive; negative”. For the same compound, the mutagenic call (Test System: AMES SALMONELLA TYPHIMURIUM, Strain/Indicator: TA97, Metabolic Activation: RAT, LIVER, S-9, AROCLOR 1254, Method: PREINCUBATION) was “inactive; negative”, the mutagenic call (Test System: AMES SALMONELLA TYPHIMURIUM, Strain/Indicator: TA97, Metabolic Activation: RAT, LIVER, S-9, PHENOBARBITAL, Method: PREINCUBATION) was “inactive; negative” and the mutagenic call (Test System: AMES SALMONELLA TYPHIMURIUM, Strain/Indicator: TA98, Metabolic Activation: HAMSTER, LIVER, S-9, AROCLOR 1254, Method: PREINCUBATION) was “inactive; negative”. The mutagenic call (Test System: AMES SALMONELLA TYPHIMURIUM, Strain/Indicator: TA98, Metabolic Activation: NONE) was “inactive; negative”, the mutagenic call [1] was “inactive; negative” and the mutagenic call (Test System: AMES SALMONELLA TYPHIMURIUM, Strain/Indicator: TA98, Metabolic Activation: RAT, LIVER, S-9, AROCLOR 1254, Method: PREINCUBATION) was “inactive; negative”. The mutagenic call (Test System: AMES SALMONELLA TYPHIMURIUM, Strain/Indicator: TA98, Metabolic Activation: RAT, LIVER, S-9, PHENOBARBITAL, Method: PREINCUBATION) was “inactive; negative”, the mutagenic call (Test System: AMES SALMONELLA TYPHIMURIUM, Strain/Indicator: TA98, Metabolic Activation: S-9) was “inactive; negative” and the mutagenic call (Test System: AMES SALMONELLA TYPHIMURIUM, Strain/Indicator: TA100, Metabolic Activation: HAMSTER, LIVER, S-9, AROCLOR 1254, Method: PREINCUBATION) was “inactive; negative”. For the same compound, the mutagenic call (Test System: AMES SALMONELLA TYPHIMURIUM, Strain/Indicator: TA100, Metabolic Activation: NONE, Method: FLUCTUATION TEST) was “active; positive”, the mutagenic call [2] was “inactive; negative” and the mutagenic call (Test System: AMES SALMONELLA TYPHIMURIUM, Strain/Indicator: TA100, Metabolic Activation: RAT, LIVER, S-9, AROCLOR 1254, Method: PREINCUBATION) was “inactive; negative”. For the same compound, the mutagenic call (Test System: AMES SALMONELLA TYPHIMURIUM, Strain/Indicator: TA100, Metabolic Activation: RAT, LIVER, S-9, PCB, Method: FLUCTUATION TEST) was “active; positive”, the mutagenic call (Test System: AMES SALMONELLA TYPHIMURIUM, Strain/Indicator: TA100, Metabolic Activation: RAT, LIVER, S-9, PHENOBARBITAL, Method: PREINCUBATION) was “inactive; negative” and the mutagenic call (Test System: AMES SALMONELLA TYPHIMURIUM, Strain/Indicator: TA102, Metabolic Activation: NONE, Method: PREINCUBATION) was “inactive; negative”. The mutagenic call (Test System: AMES SALMONELLA TYPHIMURIUM, Strain/Indicator: TA102, Metabolic Activation: RAT, LIVER, S-9, AROCLOR 1254, Method: PREINCUBATION) was “inactive; negative”, the mutagenic call (Test System: AMES SALMONELLA TYPHIMURIUM, Strain/Indicator: TA104, Metabolic Activation: NONE, Method: PREINCUBATION) was “inactive; negative” and the mutagenic call (Test System: AMES SALMONELLA TYPHIMURIUM, Strain/Indicator: TA104, Metabolic Activation: RAT, LIVER, S-9, AROCLOR 1254, Method: PREINCUBATION) was “inactive; negative”. For the same compound, the mutagenic call (Test System: AMES SALMONELLA TYPHIMURIUM, Strain/Indicator: TA1535, Metabolic Activation: HAMSTER, LIVER, S-9, AROCLOR 1254, Method: PREINCUBATION) was “inactive; negative”, the mutagenic call [3] was “inactive; negative” and the mutagenic call (Test System: AMES SALMONELLA TYPHIMURIUM, Strain/Indicator: TA1535, Metabolic Activation: RAT, LIVER, S-9, AROCLOR 1254, Method: PREINCUBATION) was “inactive; negative”. The mutagenic call (Test System: AMES SALMONELLA TYPHIMURIUM, Strain/Indicator: TA1537, Metabolic Activation: HAMSTER, LIVER, S-9, AROCLOR 1254, Method: PREINCUBATION) was “inactive; negative”, the mutagenic call [4] was “inactive; negative” and the mutagenic call (Test System: AMES SALMONELLA TYPHIMURIUM, Strain/Indicator: TA1537, Metabolic Activation: RAT, LIVER, S-9, AROCLOR 1254, Method: PREINCUBATION) was “inactive; negative”. The mutagenic call (Test System: Ames Salmonella typhimurium, Strain/Indicator: TA98, Metabolic Activation: None, Method: Preincubation) was “inactive; negative”, the mutagenic call (Test System: Ames Salmonella typhimurium, Strain/Indicator: TA98, Metabolic Activation: Rat, Liver, S9, Sodium phenobarbital and 5,6-benzoflavone, Method: Preincubation) was “inactive; negative” and the mutagenic call (Test System: Ames Salmonella typhimurium, Strain/Indicator: TA100, Metabolic Activation: None, Method: Preincubation) was “inactive; negative”. The mutagenic call (Test System: Ames Salmonella typhimurium, Strain/Indicator: TA100, Metabolic Activation: Rat, Liver, S9, Sodium phenobarbital and 5,6-benzoflavone, Method: Preincubation) was “inactive; negative”, the mutagenic call (Test System: Ames Salmonella typhimurium, Strain/Indicator: TA1535, Metabolic Activation: None, Method: Preincubation) was “inactive; negative” and the mutagenic call (Test System: Ames Salmonella typhimurium, Strain/Indicator: TA1535, Metabolic Activation: Rat, Liver, S9, Sodium phenobarbital and 5,6-benzoflavone, Method: Preincubation) was “inactive; negative”. The mutagenic call (Test System: Ames Salmonella typhimurium, Strain/Indicator: TA1537, Metabolic Activation: None, Method: Preincubation) was “inactive; negative”, the mutagenic call (Test System: Ames Salmonella typhimurium, Strain/Indicator: TA1537, Metabolic Activation: Rat, Liver, S9, Sodium phenobarbital and 5,6-benzoflavone, Method: Preincubation) was “inactive; negative” and the mutagenic call (Test System: CHINESE HAMSTER V-79, Strain/Indicator: V-79/6-THIOGUANINE, Metabolic Activation: NONE) was “active; positive”. The mutagenic call (Test System: E. coli, Strain/Indicator: WP2uvrA/pKM101, Metabolic Activation: None, Method: Preincubation) was “inactive; negative”, the mutagenic call (Test System: E. coli, Strain/Indicator: WP2uvrA/pKM101, Metabolic Activation: Rat, Liver, S9, Sodium phenobarbital and 5,6-benzoflavone, Method: Preincubation) was “inactive; negative” and the mutagenic call (Test System: E. coli, Strain/Indicator: Wp2uvrA/pKM101, Metabolic Activation: None, Method: Preincubation) was “inactive; negative”. The mutagenic call (Test System: E. coli, Strain/Indicator: Wp2uvrA/pKM101, Metabolic Activation: Rat, Liver, S9, Sodium phenobarbital and 5,6-benzoflavone, Method: Preincubation) was “inactive; negative”, the mutagenic call (Test System: MOUSE LYMPHOMA, Strain/Indicator: L5178Y (TK+/TK-), Metabolic Activation: NONE, Method: SUSPENSION/PLATE) was “active; positive” and the mutagenic call (Test System: UDS SYRIAN HAMSTER EMBRYO (SHE) CELLS, Strain/Indicator: THY INCORP, Metabolic Activation: NONE, Method: LIQUID SCINTILLATION COUNTING) was “active; positive”.

COC(=O)[C@H](C)Cl was tested, and the mutagenic call [2] was “inactive; negative” and the mutagenic call (Test System: AMES SALMONELLA TYPHIMURIUM, Strain/Indicator: TA100, Metabolic Activation: RAT, LIVER, S-9, PCB, Method: PREINCUBATION) was “inactive; negative”.

With CN(C)CCC(c1ccccc1)c1ccccn1 (stereo unspecified) the mutagenic call (Test System: AMES SALMONELLA TYPHIMURIUM, Strain/Indicator: TA98, Metabolic Activation: HAMSTER, LIVER, S-9, AROCLOR 1254 (10%), Method: PREINCUBATION) was “inactive; negative”, the mutagenic call [1] was “inactive; negative” and the mutagenic call (Test System: AMES SALMONELLA TYPHIMURIUM, Strain/Indicator: TA98, Metabolic Activation: RAT, LIVER, S-9, AROCLOR 1254 (10%), Method: PREINCUBATION) was “inactive; negative”. For the same compound, the mutagenic call (Test System: AMES SALMONELLA TYPHIMURIUM, Strain/Indicator: TA100, Metabolic Activation: HAMSTER, LIVER, S-9, AROCLOR 1254 (10%), Method: PREINCUBATION) was “inactive; negative”, the mutagenic call [2] was “inactive; negative” and the mutagenic call (Test System: AMES SALMONELLA TYPHIMURIUM, Strain/Indicator: TA100, Metabolic Activation: RAT, LIVER, S-9, AROCLOR 1254 (10%), Method: PREINCUBATION) was “inactive; negative”. For the same compound, the mutagenic call (Test System: AMES SALMONELLA TYPHIMURIUM, Strain/Indicator: TA1535, Metabolic Activation: HAMSTER, LIVER, S-9, AROCLOR 1254 (10%), Method: PREINCUBATION) was “inactive; negative”, the mutagenic call [3] was “inactive; negative” and the mutagenic call (Test System: AMES SALMONELLA TYPHIMURIUM, Strain/Indicator: TA1535, Metabolic Activation: RAT, LIVER, S-9, AROCLOR 1254 (10%), Method: PREINCUBATION) was “inactive; negative”. For the same compound, the mutagenic call (Test System: AMES SALMONELLA TYPHIMURIUM, Strain/Indicator: TA1537, Metabolic Activation: HAMSTER, LIVER, S-9, AROCLOR 1254 (10%), Method: PREINCUBATION) was “inactive; negative”, the mutagenic call [4] was “inactive; negative” and the mutagenic call (Test System: AMES SALMONELLA TYPHIMURIUM, Strain/Indicator: TA1537, Metabolic Activation: RAT, LIVER, S-9, AROCLOR 1254 (10%), Method: PREINCUBATION) was “inactive; negative”.
